Reference: PMC10460844, “Real‐Time Monitoring of Multitarget Antimicrobial Mechanisms of Peptoids Using Label‐Free Imaging with Optical Diffraction Tomography” (Advanced Science, 2023)
In brackets after ≈: the same amount, converted by molar mass. Where a name gives a salt, the structure may show the parent alone. Read-outs that look alike come from different tables or passages of the source. Square brackets hold non-standard residues; d marks the D form. Peptide text beside a SMILES is read from it. Gly(N(CH2)2(3-indolyl)) = O=C(O)CNCCc1c[nH]c2ccccc12; Nspe = C[C@H](NCC(=O)O)c1ccccc1; Nlys = NCCCCNCC(=O)O

Tests used:
E. coli ATCC 25922 = format: cell-based, Escherichia coli
Procedure: (§1) The antibacterial activity of the peptoids was evaluated against gram‐positive (Staphylococcus aureus, ATCC 25 923) and gram‐negative (Escherichia coli, ATCC 25 922) bacteria. […] The MIC of each peptoid was determined using a broth dilution assay. For each assay, the primary culture of either S. aureus or E. coli was grown overnight in cation‐adjusted Mueller Hinton broth 2 (MHB2) media at 37 °C with shaking. A secondary culture was prepared the next day, grown for 3–4 h, and then diluted in MHB2 media with a final concentration of 0.001% acetic acid and 0.02% bovine serum albumin to obtain a calculated optical density (OD) of 0.001. This corresponded to ≈2–5 × 10^5 colony‐forming units (CFU mL^−1) of bacteria. Using 96‐well polypropylene plates (Eppendorf, Hamburg, Germany), 100 µL of 2–5 × 10^5 CFU mL^−1 bacteria were added in triplicate for each peptoid. Each peptoid was assayed at six different concentrations in two‐fold serial dilutions. The maximum peptoid concentration was 25 µM. […] The MIC value determination was performed in triplicate. The MIC was defined as the lowest peptoid concentration that prevented turbidity during visual inspection.

S. aureus ATCC 25923 = format: cell-based, Staphylococcus aureus
Procedure: as §1

rat erythrocytes = experiment: Hemolysis assay; format: cell-based
How it was run: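 Washed Sprague-Dawley rat erythrocytes (10% suspension in PBS pH 7.4) mixed with peptoids (0–100 µM), 60 min at 37 °C; supernatant A540 expressed as % of 1% Triton X-100 lysis. HC10/HC50 are concentrations giving 10%/50% hemolysis; Hmax is hemolysis at 100 µM.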

[1] = Analytical reversed-phase HPLC elution (hydrophobicity); format: physicochemical; conditions: analytical RP-HPLC, 1 mL/min, UV 220 nm; for HPLC elution: Table S1, SunFire C18, water/ACN + 0.1% TFA, 5 to 100% B linear over 30 min, approximate comparison of hydrophobicity
How it was run: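 Retention time (tR) reflects hydrophobicity, with detection at 220 nm. Elution used a 5–100% acetonitrile linear gradient over 30 min after a 2 min hold at 5%, then 5 min at 100%, with both phases containing 0.1% TFA. Column was an analytical C18 (4.6 × 250 mm, 5 μm) run at 1 mL/min.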

[2] = Table S2, broth dilution, MHB2, 37 °C 24 h, max 25 µM, mean of triplicate

Row | SMILES | MIC E. coli ATCC25922 (E. coli ATCC 25922; ATCC 25922) [µM] | MIC S. aureus ATCC25923 (S. aureus ATCC 25923; ATCC 25923) [µM] | Hmax (100 µM) (rat erythrocytes) [%] | HC10 (rat erythrocytes; red cells of rat) [µM] | HC50 (rat erythrocytes; red cells of rat) [µM] | MIC S. aureus ATCC25923 (S. aureus ATCC 25923; [2]) [µM] | H max (100 µM) (rat erythrocytes) [%] | HC10 (rat erythrocytes; pH 7.4) [µM] | HC50 (rat erythrocytes; pH 7.4) [µM] | HPLC elution (%ACN) ([1]; Table 1, SunFire C18 […] 250 mm, water/ACN + 0.1% TFA, 5% B 2 min then linear to 100% B over 30 min, used as measure of hydrophobicity) | MIC E. coli ATCC25922 (E. coli ATCC 25922; [2]) [µM] | HPLC elution [1] [% MeCN]
1 | C[C@@H](c1ccccc1)N(CC(N)=O)C(=O)CN(C(=O)CN(CCCCN)C(=O)CN(C(=O)CN(C(=O)CN(CCCCN)C(=O)CN(C(=O)CN(C(=O)CN(CCCCN)C(=O)CN(CCc1c[nH]c2ccccc12)C(=O)CN(C(=O)CNCCCCN)[C@@H](C)c1ccccc1)[C@@H](C)c1ccccc1)[C@@H](C)c1ccccc1)[C@@H](C)c1ccccc1)[C@@H](C)c1ccccc1)[C@@H](C)c1ccccc1 [10-AcOH] | 6.3 (≈ 11.7 µg/mL) | 1.6 (≈ 2.97 µg/mL) | 102.3±11.3 | 14.1 | 29.4 |  |  |  |  |  |  | 
2 | C[C@@H](c1ccccc1)N(CC(N)=O)C(=O)CN(C(=O)CN(CCCCN)C(=O)CN(C(=O)CN(C(=O)CN(CCCCN)C(=O)CN(C(=O)CN(C(=O)CN(CCCCN)C(=O)CN(CCc1c[nH]c2ccccc12)C(=O)CN(C(=O)CNCCCCN)[C@@H](C)c1ccccc1)[C@@H](C)c1ccccc1)[C@@H](C)c1ccccc1)[C@@H](C)c1ccccc1)[C@@H](C)c1ccccc1)[C@@H](C)c1ccccc1 [10-HCl] | 6.3 | 3.1 | 81.5±7.4 | 15.3 | 37.8 |  |  |  |  |  |  | 
3 | C[C@@H](c1ccccc1)N(CC(=O)N(CCCCN)CC(=O)N(CC(=O)N(CC(=O)N(CCCCN)CC(=O)N(CC(=O)N(CC(=O)N(CCCCN)CC(=O)N(CCc1c[nH]c2ccccc12)CC(=O)N(CCc1c[nH]c2ccccc12)CC(N)=O)[C@@H](C)c1ccccc1)[C@@H](C)c1ccccc1)[C@@H](C)c1ccccc1)[C@@H](C)c1ccccc1)C(=O)CN(C(=O)CNCCCCN)[C@@H](C)c1ccccc1 [11-AcOH] (H-[Nlys][Nspe][Nspe][Nlys][Nspe][Nspe][Nlys][Nspe][Nspe][Nlys][Gly(N(CH2)2(3-indolyl))][Gly(N(CH2)2(3-indolyl))]-NH2) | 3.1 (≈ 5.88 µg/mL) | 1.6 (≈ 3.04 µg/mL) | 110.4±0.2 | 8.7 | 29.7 |  |  |  |  |  |  | 
4 | C[C@@H](c1ccccc1)N(CC(=O)N(CCCCN)CC(=O)N(CC(=O)N(CC(=O)N(CCCCN)CC(=O)N(CC(=O)N(CC(=O)N(CCCCN)CC(=O)N(CCc1c[nH]c2ccccc12)CC(=O)N(CCc1c[nH]c2ccccc12)CC(N)=O)[C@@H](C)c1ccccc1)[C@@H](C)c1ccccc1)[C@@H](C)c1ccccc1)[C@@H](C)c1ccccc1)C(=O)CN(C(=O)CNCCCCN)[C@@H](C)c1ccccc1 [11-HCl] (H-[Nlys][Nspe][Nspe][Nlys][Nspe][Nspe][Nlys][Nspe][Nspe][Nlys][Gly(N(CH2)2(3-indolyl))][Gly(N(CH2)2(3-indolyl))]-NH2) | 3.1 | 3.1 | 113.9±1.7 | 10.1 | 21.5 |  |  |  |  |  |  | 
5 | C[C@@H](c1ccccc1)N(CC(N)=O)C(=O)CN(C(=O)CN(CCCCN)C(=O)CN(C(=O)CN(C(=O)CN(CCCCN)C(=O)CN(C(=O)CN(C(=O)CN(CCCCN)C(=O)CN(CCc1c[nH]c2ccccc12)C(=O)CN(CCc1c[nH]c2ccccc12)C(=O)CNCCCCN)[C@@H](C)c1ccccc1)[C@@H](C)c1ccccc1)[C@@H](C)c1ccccc1)[C@@H](C)c1ccccc1)[C@@H](C)c1ccccc1 [14-AcOH] | 3.1 (≈ 5.88 µg/mL) | 1.6 (≈ 3.04 µg/mL) | 100.7±17.2 | 14.9 | 51.8 |  |  |  |  |  |  | 
6 | C[C@@H](c1ccccc1)N(CC(N)=O)C(=O)CN(C(=O)CN(CCCCN)C(=O)CN(C(=O)CN(C(=O)CN(CCCCN)C(=O)CN(C(=O)CN(C(=O)CN(CCCCN)C(=O)CN(CCc1c[nH]c2ccccc12)C(=O)CN(CCc1c[nH]c2ccccc12)C(=O)CNCCCCN)[C@@H](C)c1ccccc1)[C@@H](C)c1ccccc1)[C@@H](C)c1ccccc1)[C@@H](C)c1ccccc1)[C@@H](C)c1ccccc1 [14-HCl] | 3.1 | 3.1 | 75.3±5.0 | 19.2 | 68.2 |  |  |  |  |  |  | 
7 | C[C@@H](c1ccccc1)N(CC(N)=O)C(=O)CN(C(=O)CN(CCCCN)C(=O)CN(C(=O)CN(CCc1c[nH]c2ccccc12)C(=O)CN(CCCCN)C(=O)CN(CCc1c[nH]c2ccccc12)C(=O)CN(C(=O)CN(CCCCN)C(=O)CN(C(=O)CN(C(=O)CNCCCCN)[C@@H](C)c1ccccc1)[C@@H](C)c1ccccc1)[C@@H](C)c1ccccc1)[C@@H](C)c1ccccc1)[C@@H](C)c1ccccc1 [15-AcOH] | 6.3 (≈ 12 µg/mL) | 3.1 (≈ 5.88 µg/mL) | 34.1±1.1 | 39.2 | > 100 |  |  |  |  |  |  | 
8 | C[C@@H](c1ccccc1)N(CC(N)=O)C(=O)CN(C(=O)CN(CCCCN)C(=O)CN(C(=O)CN(CCc1c[nH]c2ccccc12)C(=O)CN(CCCCN)C(=O)CN(CCc1c[nH]c2ccccc12)C(=O)CN(C(=O)CN(CCCCN)C(=O)CN(C(=O)CN(C(=O)CNCCCCN)[C@@H](C)c1ccccc1)[C@@H](C)c1ccccc1)[C@@H](C)c1ccccc1)[C@@H](C)c1ccccc1)[C@@H](C)c1ccccc1 [15-HCl] | 6.3 | 3.1 | 33.4±9.7 | 50.4 | > 100 |  |  |  |  |  |  | 
9 | C[C@@H](c1ccccc1)N(CC(=O)N(CCCCN)CC(=O)N(CCc1c[nH]c2ccccc12)CC(=O)N(CCc1c[nH]c2ccccc12)CC(N)=O)C(=O)CN(CCCCN)C(=O)CN(CCCCN)C(=O)CN(C(=O)CN(C(=O)CN(CCCCN)C(=O)CN(C(=O)CN(C(=O)CNCCCCN)[C@@H](C)c1ccccc1)[C@@H](C)c1ccccc1)[C@@H](C)c1ccccc1)[C@@H](C)c1ccccc1 [29-AcOH] (H-[Nlys][Nspe][Nspe][Nlys][Nspe][Nspe][Nlys][Nlys][Nspe][Nlys][Gly(N(CH2)2(3-indolyl))][Gly(N(CH2)2(3-indolyl))]-NH2) | 6.3 (≈ 11.7 µg/mL) | 12.5 (≈ 23.3 µg/mL) | 5.2±0.2 | > 100 | > 100 |  |  |  |  |  |  | 
10 | CC[C@H](C)[C@H](N)C(=O)N[C@@H](CC(C)C)C(=O)N[C@@H](CCCNC(=N)N)C(=O)N[C@@H](Cc1c[nH]c2ccccc12)C(=O)N1CCC[C@H]1C(=O)N[C@@H](Cc1c[nH]c2ccccc12)C(=O)N[C@@H](Cc1c[nH]c2ccccc12)C(=O)N1CCC[C@H]1C(=O)N[C@@H](Cc1c[nH]c2ccccc12)C(=O)N[C@@H](CCCNC(=N)N)C(=O)N[C@@H](CCCNC(=N)N)C(=O)N[C@@H](CCCCN)C(N)=O [Omiganan, reference compound] (H-ILRWPWWPWRRK-NH2) |  |  | 0 |  |  | 12.5 (≈ 22.2 µg/mL) | 0 | > 100 | > 100 | 45.7 |  | 
11 | C[C@@H](c1ccccc1)N(CC(N)=O)C(=O)CN(C(=O)CN(CCCCN)C(=O)CN(C(=O)CN(C(=O)CN(CCCCN)C(=O)CN(CCc1c[nH]c2ccccc12)C(=O)CN(C(=O)CN(CCCCN)C(=O)CN(C(=O)CN(C(=O)CNCCCCN)[C@@H](C)c1ccccc1)[C@@H](C)c1ccccc1)[C@@H](C)c1ccccc1)[C@@H](C)c1ccccc1)[C@@H](C)c1ccccc1)[C@@H](C)c1ccccc1 [peptoid 9] |  |  | 106.4±0.6 |  |  |  |  | 10.6 | 31.9 |  | 3.1 (≈ 5.76 µg/mL) | 54.6
12 | C[C@@H](c1ccccc1)N(CC(N)=O)C(=O)CN(C(=O)CN(CCCCN)C(=O)CN(C(=O)CN(CCc1c[nH]c2ccccc12)C(=O)CN(CCCCN)C(=O)CN(CCc1c[nH]c2ccccc12)C(=O)CN(C(=O)CN(CCCCN)C(=O)CN(C(=O)CN(C(=O)CNCCCCN)[C@@H](C)c1ccccc1)[C@@H](C)c1ccccc1)[C@@H](C)c1ccccc1)[C@@H](C)c1ccccc1)[C@@H](C)c1ccccc1 [peptoid 15] | 3.1 (≈ 5.88 µg/mL) |  |  | 20.5 | 89.2 |  |  | 28.1 | 60.9 |  |  | 53.7
13 | C[C@@H](c1ccccc1)N(CC(N)=O)C(=O)CN(CCCCN)C(=O)CN(C(=O)CN(CCCCN)C(=O)CN(CCCCN)C(=O)CN(C(=O)CN(C(=O)CN(CCCCN)C(=O)CN(C(=O)CN(C(=O)CN(CCCCN)C(=O)CN(C(=O)CNCCc1c[nH]c2ccccc12)[C@@H](C)c1ccccc1)[C@@H](C)c1ccccc1)[C@@H](C)c1ccccc1)[C@@H](C)c1ccccc1)[C@@H](C)c1ccccc1)[C@@H](C)c1ccccc1 [peptoid 62] |  |  | 44.8±8.1 |  |  |  |  | 36.2 | > 100 |  |  | 50.8
